{"source": "patent US20120288482A1", "about": "“THERAPEUTIC AGENT (Y-39983) FOR CORNEAL ENDOTHELIAL DYSFUNCTION” (priority 2009, published 2012)", "key": {"[1]": {"test_system": "corneal endothelial wound", "assay": "Rabbit corneal endothelial wound model, topical instillation (Example 1)", "assay_type": "in vivo", "settings": "10 mM instillation, 6 times a day, 46 hours after wound creation", "experimental": "In this Example, 0.95 mM (0.03 w/v%) compound (I) instillation and 0.32 mM (0.01 w/v%) compound (I) instillation obtained by diluting the above instillation with the above-mentioned vehicle were used.\nAs a positive control substances, Y-27632 dihydrochloride (Wako Pure Chemical Industries, Co., Ltd., Cat. #253-00513) and fasudil hydrochloride hydrate injection (Eril (registered trade mark) drip intravenous injection, Asahi Kasei Pharma) were purchased, and Y-27632 and Fasudil were each adjusted to 10 mM with phosphate-buffered saline (PBS, Invitrogen, Cat. #14190). In addition, PBS was used as a negative control substance.\nMale Japanese white rabbits (body weight 2.5-3.0 kg, 21 rabbits) were purchased from Biotek Co., Ltd. and used. They are kept in individual cages at 23±3° C. temperature, at 55±10% humidity and 12 hours artificial light cycle (lighting on; 8:00 a.m., lighting off; 8:00 p.m.). One hundred grams of solid food (Labo R stock; Nosan Corp.) are provided daily to each animal. Water is supplied by automatic watering apparatus.\n3. Excision of Nictitating Membrane of Animal Before starting the test, the nictitating membrane of both eyes of the animal was excised. To be specific, each animal was set in a positioner, and the ocular surface was topically anesthetized by instillation of a topical anesthesia (Benoxil instillation 0.4%, Santen Pharmaceutical Co., Ltd.). Then, the root position of the nictitating membrane was pressed with a clamp for 30 sec, and compressing mark was cut with scissors. After excision of the nictitating membrane, the antibiotic ointment (tarivid eye ointment, Santen Pharmaceutical Co., Ltd.) was instilled to prevent infection. After 4 days from the excision of the nictitating membrane, animals confirmed to have no abnormality in the external eye including the excised site were used.\nThe corneal thickness of the right eye of each animal was measured with an ultrasonic pachymeter (manufactured by DGH Technologies Inc., DGH-500), and the animals were divided into 4 groups such that the corneal thickness of each group was equal. The animals used for each group were as follows. • 10 mM Y-27632 group=5 eyes • 0.32 mM compound (I) group=5 eyes • 0.95 mM compound (I) group=6 eyes • 10 mM Fasudil group=5 eyes • PBS group=21 eyes (left eye)\nThe animals were sytemically anesthetized by intramuscular administration of Ketalar muscular injection ([…], DAIICHI SANKYO COMPANY, LIMITED., 0.6 ml) and Celactal 2% Injection (Bayer, Ltd., 0.25 ml). Then, Benoxil instillation 0.4% (Santen Pharmaceutical Co., Ltd., one drop) was instilled and the eye was opened using a lid speculum.\nA 7-mm diameter stainless dowel that had been cooled in liquid nitrogen was placed on the central cornea of both eyes of 21 animals for 15 sec. to produce an ice ball in the anterior chamber and dissociate corneal endothelial cells, whereby a corneal endothelial wound was produced.\nFor topical instillation, after wound creation, compound (I) instillation, Y-27632 instillation or Fasudil instillation was instilled to the right eye, and PBS was instilled to the left eye 6 times a day (4 times on the day of wound production) at 50 μL per instillation. Administration interval in one day was 2 hours. […]"}, "[2]": {"test_system": "cultured monkey corneal endothelial cells", "settings": "in vitro; cited from earlier work"}}, "data": [{"molecule": "O=S(=O)(c1cccc2cnccc12)N1CCCNCC1", "note": "[Fasudil]", "values": [{"measurement": "area of the unrepaired wound site (corneal endothelium wound area)", "setting": "[1]", "result": 1.7, "unit": "mm^2"}, {"measurement": "apoptosis", "setting": "[2]", "result": "suppression of apoptosis"}, {"measurement": "cell adhesion", "setting": "[2]", "result": "promotion of cell adhesion"}, {"measurement": "cell cycle", "setting": "[2]", "result": "promotion of cell cycle"}]}]}
